pIC50: −log10 of the molar value.
Tested on: rabbit aorta rings
Test: Vasorelaxant effect in vitro (phenylephrine-contracted rabbit aorta rings)
Settings: Oryctolagus cuniculus; concentration reducing height of phenylephrine-induced contraction of rabbit aorta rings by 50%; 0.1% DMSO
Method: Rabbits are stunned by a blow to the back of the neck and are exsanguinated. The aorta is removed, freed of adherent tissue, divided into rings 1.5 mm wide and put singly under tension in 5 ml organ baths containing carbogen-gassed Krebs-Henseleit solution at 37° C. with the following composition (mM): NaCl: 119; KCl: 4.8; CaCl2×2 H2O: 1; MgSO4×7 H2O; 1.4; KH2PO4: 1.2; NaHCO3: 25; glucose: 10. The force of contraction is detected with Statham UC2 cells, amplified and digitized via A/D converters (DAS-1802 HC, Keithley Instruments Munich) and recorded in parallel on chart recorders. A contraction is generated by adding phenylephrine to the bath cumulatively in increasing concentration. After several control cycles, the substance to be investigated is investigated in each further run in increasing dosage in each case, and the height of the contraction is compared with the height of the contraction reached in the last preceding run. The concentration necessary to reduce the height of the control value by 50% (IC50) is calculated from this. The standard application volume is 5 μl, and the DMSO content in the bath solution corresponds to 0.1%.

CC(C)S(=O)(=O)Oc1cnc(-c2nn(Cc3ccccc3F)c3ncccc23)nc1N [Example 5]
pIC50: 6.28

Nc1nc(-c2nn(Cc3ccccc3F)c3ncccc23)ncc1OS(=O)(=O)CCCC(F)(F)F [Example 7]
pIC50: 6.36

CS(=O)(=O)Oc1cnc(-c2nn(Cc3ccccc3F)c3ncccc23)nc1N [Example 2]
pIC50: 6.24

CCS(=O)(=O)Oc1cnc(-c2nn(Cc3ccccc3F)c3ncccc23)nc1N [Example 3]
pIC50: 6.52

Nc1nc(-c2nn(Cc3ccccc3F)c3ncccc23)ncc1OS(=O)(=O)C1CC1 [Example 4]
pIC50: 6.15

Nc1nc(-c2nn(Cc3ccccc3F)c3ncccc23)ncc1OS(=O)(=O)c1ccccc1 [Example 10]
pIC50: 5.69

Nc1nc(-c2nn(Cc3ccccc3F)c3ncccc23)ncc1OS(=O)(=O)CCl [Example 1, 4-Amino-2-[1-(2-fluorobenzyl)-1H-pyrazolo[3,4-b]pyridin-3-yl]-5-pyrimidinyl chloromethanesulfonate]
pIC50: 6.15
